experiment: Inhibition of chymotrypsin (unknown origin); conditions: Homo sapiens

Q: Which log1/Ki does the source give for O=CNc1ccc(Cl)cc1 here?
A: The log1/Ki was 3.4.

Q: Which log1/Ki does the source give for N#Cc1ccc(NC=O)cc1 here?
A: The log1/Ki was 1.9.

Q: With NC(=O)CCc1ccccc1 as the compound, how does the log1/Ki read?
A: The log1/Ki was 2.15.

Q: With CC(=O)Nc1ccccc1 as the compound, how does the log1/Ki read?
A: The log1/Ki was 1.89.

Q: Which log1/Ki does the source give for CCC(=O)Nc1ccccc1 here?
A: Its log1/Ki is 2.18.

Q: With O=C(CCl)NCCc1ccccc1 as the compound, how does the log1/Ki read?
A: The log1/Ki was 2.

Q: For COc1cccc(NC=O)c1, which log1/Ki is on record?
A: The log1/Ki was 2.17.

Q: Which log1/Ki does the source give for NC(=O)CCCc1ccccc1 here?
A: The log1/Ki was 1.92.

Q: Which log1/Ki does the source give for CC(=O)NCc1ccccc1 here?
A: Its log1/Ki is 2.12.

Q: With COC(=O)c1nc2ccccc2[nH]1 as the compound, how does the log1/Ki read?
A: The log1/Ki was 2.25.

Q: Which log1/Ki does the source give for CC(=O)NCCc1ccccc1 here?
A: The log1/Ki was 1.94.

Q: With NC(=O)CCc1c[nH]c2ccccc12 as the compound, how does the log1/Ki read?
A: The log1/Ki was 2.64.

Q: For Cc1ccc(CC(NC(=O)C(F)(F)F)C(=O)O)cc1 (stereo not drawn), which log1/Ki is on record?
A: Its log1/Ki is 2.82.

Q: Which log1/Ki does the source give for O=CNc1cccc(Cl)c1 here?
A: Its log1/Ki is 3.1.

Q: With NC(=O)CNC(=O)c1ccccc1 as the compound, how does the log1/Ki read?
A: The log1/Ki was 1.9.

Q: With NC(=O)c1ccnc2ccccc12 as the compound, how does the log1/Ki read?
A: Its log1/Ki is 2.08.

Q: For O=C(NCCc1c[nH]c2ccccc12)C(F)(F)F, which log1/Ki is on record?
A: The log1/Ki was 2.92.

Q: With O=CNc1ccccc1 as the compound, how does the log1/Ki read?
A: The log1/Ki was 2.4.

Q: Which log1/Ki does the source give for Cc1cccc(CC(NC(=O)C(F)(F)F)C(=O)O)c1 (stereo not drawn) here?
A: The log1/Ki was 2.35.

Q: With CC(=O)c1ccc(NC=O)cc1 as the compound, how does the log1/Ki read?
A: The log1/Ki was 1.72.

Q: For O=C(CCl)NCc1ccccc1, which log1/Ki is on record?
A: Its log1/Ki is 2.31.

Q: For CCC(=O)NCc1ccccc1, which log1/Ki is on record?
A: Its log1/Ki is 2.2.

Q: For COc1ccc(NC=O)cc1, which log1/Ki is on record?
A: The log1/Ki was 2.06.

Q: Which log1/Ki does the source give for O=C(O)C(Cc1ccc(F)cc1)NC(=O)C(F)(F)F (stereo not drawn) here?
A: The log1/Ki was 2.89.

Q: Which log1/Ki does the source give for NC(=O)Cc1ccccc1 here?
A: The log1/Ki was 1.82.

Q: For CC(=O)NCCc1c[nH]c2ccccc12, which log1/Ki is on record?
A: Its log1/Ki is 2.74.

Q: Which log1/Ki does the source give for O=C(O)C(Cc1ccc(F)cc1F)NC(=O)C(F)(F)F (stereo not drawn) here?
A: Its log1/Ki is 2.35.

Q: Which log1/Ki does the source give for O=C(O)C(Cc1ccccc1)NC(=O)C(F)(F)F (stereo not drawn) here?
A: Its log1/Ki is 2.1.

Q: Which log1/Ki does the source give for O=CNc1ccc([N+](=O)[O-])cc1 here?
A: Its log1/Ki is 2.42.

Q: With Cc1ccc(NC=O)cc1 as the compound, how does the log1/Ki read?
A: The log1/Ki was 2.52.

Q: Which log1/Ki does the source give for O=C(O)C(Cc1ccc(Br)cc1)NC(=O)C(F)(F)F (stereo not drawn) here?
A: The log1/Ki was 3.

Q: For NC(=O)c1ccccc1, which log1/Ki is on record?
A: Its log1/Ki is 2.

Q: For O=C(O)C(Cc1cccc(F)c1)NC(=O)C(F)(F)F (stereo not drawn), which log1/Ki is on record?
A: Its log1/Ki is 2.57.

Reference: ChEMBL document CHEMBL3243920, “Quantitative structure-activity relationships of chymotrypsin. On the predictive value of correlation equations” (J Med Chem, 1977)
